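Following 48 hours of exposure in 96-well plates, responses at five concentrations were used to interpolate endpoints linearly. The concentration for 50% growth inhibition is given as GI50. TGI: total growth inhibition.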
How the values were obtained:
Assay in all cases: growth of human tumour cells (NCI), 48 h
786-0 renal = tested on: 786-0 renal
A498 renal = tested on: A498 renal
A549 NSCLC = tested on: A549 NSCLC
ACHN renal = tested on: ACHN renal
BT-549 breast = tested on: BT-549 breast
CAKI-1 renal = tested on: CAKI-1 renal
COLO 205 colon = tested on: COLO 205 colon
DU-145 prostate = tested on: DU-145 prostate
EKVX NSCLC = tested on: EKVX NSCLC
HCC-2998 colon = tested on: HCC-2998 colon
HCT-15 colon = tested on: HCT-15 colon
HL-60(TB) leukemia = tested on: HL-60(TB) leukemia
HOP-92 NSCLC = tested on: HOP-92 NSCLC
HS 578T breast = tested on: HS 578T breast
HT29 colon = tested on: HT29 colon
IGROV1 ovarian = tested on: IGROV1 ovarian
K-562 leukemia = tested on: K-562 leukemia
KM12 colon = tested on: KM12 colon
LOX IMVI melanoma = tested on: LOX IMVI melanoma
M14 melanoma = tested on: M14 melanoma
MALME-3M melanoma = tested on: MALME-3M melanoma
MCF7 breast = tested on: MCF7 breast
MDA-MB-231 breast = tested on: MDA-MB-231 breast
MDA-MB-435 = tested on: MDA-MB-435
MOLT-4 leukemia = tested on: MOLT-4 leukemia
NCI-H226 lung = tested on: NCI-H226 lung
NCI-H23 lung = tested on: NCI-H23 lung
NCI-H460 lung = tested on: NCI-H460 lung
NCI-H522 lung = tested on: NCI-H522 lung
OVCAR-3 ovarian = tested on: OVCAR-3 ovarian
OVCAR-4 ovarian = tested on: OVCAR-4 ovarian
OVCAR-5 ovarian = tested on: OVCAR-5 ovarian
RPMI-8226 leukemia = tested on: RPMI-8226 leukemia
RXF 393 renal = tested on: RXF 393 renal
SF-268 CNS = tested on: SF-268 CNS
SF-295 CNS = tested on: SF-295 CNS
SF-539 CNS = tested on: SF-539 CNS
SK-MEL-2 melanoma = tested on: SK-MEL-2 melanoma
SK-MEL-28 melanoma = tested on: SK-MEL-28 melanoma
SK-MEL-5 melanoma = tested on: SK-MEL-5 melanoma
SK-OV-3 ovarian = tested on: SK-OV-3 ovarian
SN12C renal = tested on: SN12C renal
SNB-75 CNS = tested on: SNB-75 CNS
SR leukemia = tested on: SR leukemia
SW-620 colon = tested on: SW-620 colon
T-47D breast = tested on: T-47D breast
TK-10 renal = tested on: TK-10 renal
U251 CNS = tested on: U251 CNS
UACC-257 melanoma = tested on: UACC-257 melanoma
UACC-62 melanoma = tested on: UACC-62 melanoma
UO-31 renal = tested on: UO-31 renal

`CCN(CC)CCCN1C(=O)c2c(c(C)c3c(oc4ccc(O)cc43)c2C)C1=O` showed a GI50 (786-0 renal) of 1.74 µM, a TGI (786-0 renal) of 3.32 µM and a GI50 (A498 renal) of 12.6 µM. For the same compound, the TGI (A498 renal) was 27.2 µM, the GI50 (A549 NSCLC) was 1.65 µM and the TGI (A549 NSCLC) was 3.23 µM. The GI50 (ACHN renal) was 1.62 µM, the TGI (ACHN renal) was 2.98 µM and the GI50 (BT-549 breast) was 1.75 µM. For the same compound, the TGI (BT-549 breast) was 3.26 µM, the GI50 (CAKI-1 renal) was 2.33 µM and the TGI (CAKI-1 renal) was 6.52 µM. The GI50 (COLO 205 colon) was 2.64 µM, the TGI (COLO 205 colon) was 10.8 µM and the GI50 (DU-145 prostate) was 1.84 µM. It also gave a TGI (DU-145 prostate) of 3.29 µM, a GI50 (EKVX NSCLC) of 1.69 µM and a TGI (EKVX NSCLC) of 3.27 µM. It also gave a GI50 (HCC-2998 colon) of 2.67 µM, a TGI (HCC-2998 colon) of 7.39 µM and a GI50 (HCT-15 colon) of 1.68 µM. It also gave a TGI (HCT-15 colon) of 3.22 µM, a GI50 (HL-60(TB) leukemia) of 1.57 µM and a TGI (HL-60(TB) leukemia) of 3.43 µM. For the same compound, the GI50 (HOP-92 NSCLC) was 1.33 µM, the TGI (HOP-92 NSCLC) was 2.81 µM and the GI50 (HS 578T breast) was 2.15 µM. For the same compound, the TGI (HS 578T breast) was 5.31 µM, the GI50 (HT29 colon) was 1.55 µM and the TGI (HT29 colon) was 3.02 µM. The GI50 (IGROV1 ovarian) was 1.74 µM, the TGI (IGROV1 ovarian) was 3.31 µM and the GI50 (K-562 leukemia) was 1.71 µM. The TGI (K-562 leukemia) was 3.77 µM, the GI50 (KM12 colon) was 1.83 µM and the TGI (KM12 colon) was 3.55 µM. For the same compound, the GI50 (LOX IMVI melanoma) was 1.79 µM, the TGI (LOX IMVI melanoma) was 3.32 µM and the GI50 (M14 melanoma) was 1.76 µM. For the same compound, the TGI (M14 melanoma) was 3.2 µM, the GI50 (MALME-3M melanoma) was 1.73 µM and the TGI (MALME-3M melanoma) was 3.25 µM. The GI50 (MCF7 breast) was 1.81 µM, the TGI (MCF7 breast) was 3.71 µM and the GI50 (MDA-MB-231 breast) was 1.91 µM. For the same compound, the TGI (MDA-MB-231 breast) was 3.58 µM, the GI50 (MDA-MB-435) was 1.84 µM and the TGI (MDA-MB-435) was 3.53 µM. It also gave a GI50 (MOLT-4 leukemia) of 1.8 µM, a TGI (MOLT-4 leukemia) of 4.26 µM and a GI50 (NCI-H226 lung) of 1.93 µM. It also gave a TGI (NCI-H226 lung) of 4.27 µM, a GI50 (NCI-H23 lung) of 1.99 µM and a TGI (NCI-H23 lung) of 3.8 µM. It also gave a GI50 (NCI-H460 lung) of 1.83 µM, a TGI (NCI-H460 lung) of 3.47 µM and a GI50 (NCI-H522 lung) of 1.84 µM. For the same compound, the TGI (NCI-H522 lung) was 3.75 µM, the GI50 (OVCAR-3 ovarian) was 1.85 µM and the TGI (OVCAR-3 ovarian) was 3.42 µM. For the same compound, the GI50 (OVCAR-4 ovarian) was 1.93 µM, the TGI (OVCAR-4 ovarian) was 3.68 µM and the GI50 (OVCAR-5 ovarian) was 1.7 µM. For the same compound, the TGI (OVCAR-5 ovarian) was 3.13 µM, the GI50 (RPMI-8226 leukemia) was 1.85 µM and the TGI (RPMI-8226 leukemia) was 4.28 µM. It also gave a GI50 (RXF 393 renal) of 1.49 µM, a TGI (RXF 393 renal) of 2.97 µM and a GI50 (SF-268 CNS) of 1.69 µM. The TGI (SF-268 CNS) was 3.43 µM, the GI50 (SF-295 CNS) was 1.82 µM and the TGI (SF-295 CNS) was 3.26 µM. For the same compound, the GI50 (SF-539 CNS) was 1.72 µM, the TGI (SF-539 CNS) was 3.11 µM and the GI50 (SK-MEL-2 melanoma) was 17 µM. For the same compound, the TGI (SK-MEL-2 melanoma) was 35.9 µM, the GI50 (SK-MEL-28 melanoma) was 1.82 µM and the TGI (SK-MEL-28 melanoma) was 3.38 µM. The GI50 (SK-MEL-5 melanoma) was 1.71 µM, the TGI (SK-MEL-5 melanoma) was 3.12 µM and the GI50 (SK-OV-3 ovarian) was 1.7 µM. For the same compound, the TGI (SK-OV-3 ovarian) was 3.1 µM, the GI50 (SN12C renal) was 1.78 µM and the TGI (SN12C renal) was 3.36 µM. For the same compound, the GI50 (SNB-75 CNS) was 1.59 µM, the TGI (SNB-75 CNS) was 2.98 µM and the GI50 (SR leukemia) was 0.765 µM. For the same compound, the TGI (SR leukemia) was 2.78 µM, the GI50 (SW-620 colon) was 1.7 µM and the TGI (SW-620 colon) was 3.52 µM. The GI50 (T-47D breast) was 2.17 µM, the TGI (T-47D breast) was 5.33 µM and the GI50 (TK-10 renal) was 1.84 µM. It also gave a TGI (TK-10 renal) of 3.35 µM, a GI50 (U251 CNS) of 1.58 µM and a TGI (U251 CNS) of 2.98 µM. For the same compound, the GI50 (UACC-257 melanoma) was 1.88 µM, the TGI (UACC-257 melanoma) was 3.92 µM and the GI50 (UACC-62 melanoma) was 16.1 µM. The TGI (UACC-62 melanoma) was 31.5 µM, the GI50 (UO-31 renal) was 1.58 µM and the TGI (UO-31 renal) was 3.01 µM.

Source: PubChem BioAssay (NCI)
